# Measurements published in patent US20020065227A1, “Charged compounds comprising a nucleic acid binding moiety and uses therefor” (priority 2000, published 2002).
# “And” between values parts separate entries of the source, which are not always exact repeats. Equal values may be shown once. Read-outs that look alike come from different tables or passages of the source.
# Experiments:
# [1] = test system: Staphylococcus aureus (29213); assay: MIC, NCCLS broth microdilution; assay type: cell-based
# [2] = test system: Clostridium perfringens (13124); assay: microbe, parasite or virus in culture; assay type: cell-based
# [3] = test system: Bacillus subtilis (6633); assay: MIC, NCCLS broth microdilution; assay type: cell-based
# [4] = test system: Bacillus cereus (11778); assay: MIC, NCCLS broth microdilution; assay type: cell-based
# [5] = test system: Micrococcus luteus (381); assay: MIC, NCCLS broth microdilution; assay type: cell-based
# [6] = test system: Enterococcus faecalis (29212); assay: MIC, NCCLS broth microdilution; assay type: cell-based; conditions: Enterococcus faecalis (29212)
# [7] = test system: Esherichia coli (25922); assay: MIC, NCCLS broth microdilution; assay type: cell-based, Escherichia coli; conditions: Escherichia coli (25922)
# [8] = test system: Pseudomona aeruginosa (27853); assay: MIC, NCCLS broth microdilution; assay type: cell-based
# [9] = test system: Staphylococcus epidermidis (12228); assay: MIC, NCCLS broth microdilution; assay type: cell-based; conditions: Staphylococcus epidermidis (12228)
# [10] = test system: Corynebacterium Group A (49676); assay: MIC, NCCLS broth microdilution; assay type: cell-based
# [11] = test system: Listeria monocytogenes (19115); assay: MIC, NCCLS broth microdilution; assay type: cell-based; conditions: read-out: MIC
# [12] = test system: Propionibacterium acnes (33179); assay: MIC, NCCLS broth microdilution; assay type: cell-based; conditions: anaerobe
# [13] = test system: Streptococcus pneumoniae (49619); assay: MIC, NCCLS broth microdilution; assay type: cell-based; conditions: Streptococcus pneumoniae (49619)
# [14] = test system: Streptococcus pyogenes (49339); assay: MIC, NCCLS broth microdilution; assay type: cell-based; conditions: Streptococcus pyogenes (49339), Table Ia: Streptococcus Group A(49339)
# [15] = test system: Haemophilus influenzae (49247); assay: MIC, NCCLS broth microdilution; assay type: cell-based; conditions: Haemophilus influenzae (49247); read-out: MIC
# [16] = test system: Peptostreptococcus asaccharolytics (29743); assay: MIC, NCCLS broth microdilution; assay type: cell-based; conditions: anaerobe
# [17] = test system: Enterococcus faecium (51559) (vacomycin resistant); assay: MIC, NCCLS broth microdilution; assay type: cell-based; conditions: Enterococcus faecium (51559), vancomycin resistant
# [18] = test system: Staphylococcus aureus (33591) (methicillin resistant); assay: MIC, NCCLS broth microdilution; assay type: cell-based; conditions: Staphylococcus aureus (33591), methicillin resistant (MRSA)
# [19] = test system: AATACT; assay: DNase I footprint titration, AATACT site; assay type: binding; conditions: equilibrium association constant Ka; pH 7.0, 22° C.
# [20] = test system: ATTACT; assay: DNase I footprint titration, ATTACT site; assay type: binding; conditions: equilibrium association constant Ka; pH 7.0, 22° C.
# [21] = test system: Candida albicans (90028); assay: MIC, antifungal assay; assay type: cell-based
# [22] = test system: AGTACT; assay: DNase I footprint titration, AGTACT site; assay type: binding; conditions: equilibrium association constant Ka; pH 7.0, 22° C.
# [23] = test system: ACTACT; assay: DNase I footprint titration, ACTACT site; assay type: binding; conditions: equilibrium association constant Ka; pH 7.0, 22° C.
# [24] = test system: Streptococcus pneumoniae (51422) (multiple drug resistant); assay: MIC, NCCLS broth microdilution; assay type: cell-based
# [25] = test system: Candida albicans (38247) (Polyene resistant); assay: MIC, antifungal assay; assay type: cell-based
smiles,measurement,setting,value
"CC1COc2c(N3CCN(C)CC3)c(F)cc3c(=O)c(C(=O)O)cn1c23 (stereo not drawn) [Ofloxacin, ofloxacin, reference compound]",MIC,[1]; Staphylococcus aureus,0.125 µg/mL
same,MIC,[2]; Clostridium perfringens,0.25 µg/mL
same,MIC,[3]; Bacillus subtilis,0.125 µg/mL
same,MIC,[4]; Bacillus cereus,0.125 µg/mL
same,MIC,[5]; read-out: MIC,1 µg/mL
same,MIC,[6]; read-out: MIC,8 µg/mL
same,MIC,[7]; read-out: MIC,0.03 µg/mL
same,MIC,[8],> 128 µg/mL
same,MIC,[9]; read-out: MIC,0.25 µg/mL
same,MIC,[10]; Corynebacterium,0.125 µg/mL
same,MIC,[11],1 µg/mL
same,MIC,"[12]; Cutibacterium acnes, read-out: MIC",0.25 µg/mL
same,MIC,[13]; read-out: MIC,1 to 2 µg/mL
same,MIC,[14]; read-out: MIC,1 µg/mL
same,MIC,[15],0.25 µg/mL
same,MIC,[16]; read-out: MIC,0.5 µg/mL
same,MIC,[17]; read-out: MIC,8 µg/mL
same,MIC,[18]; read-out: MIC,0.25 µg/mL
Cn1cc(NC(=O)c2cc(NC(=O)c3nsc(NCCN4CCOCC4)c3Cl)cn2C)cc1C(N)=O [V-bb],MIC,"[4]; Bacillus cereus, strain not stated",8 µg/mL
CN(C)CCCNC(=O)c1cc(NC(=O)c2cc(NC(=O)c3cc(NC(=O)c4nsc(NCCN)c4Cl)cn3C)cn2C)cn1C [V-c],MIC,[1]; Staphylococcus aureus (29213),8 µg/mL
same,"Binding Constant, sequence AATACT",[19],2e+08 M⁻¹
same,MIC,"[2]; Clostridium perfringens (13124), anaerobe",2 µg/mL
same,MIC,[3]; Bacillus subtilis (6633),4 µg/mL
same,MIC,[4]; Bacillus cereus (11778),4 µg/mL
same,"Binding Constant, sequence ATTACT",[20],2e+08 M⁻¹
same,MIC,[21],8 µg/mL
same,MIC,[5],8 µg/mL
same,"Binding Constant, sequence AGTACT",[22],5e+09 M⁻¹
same,MIC,[6],4 µg/mL
same,MIC,[7],>128 µg/mL
same,"Binding Constant, sequence ACTACT",[23],2e+08 M⁻¹
same,MIC,[8]; Pseudomona aeruginosa (27853),>128 µg/mL
same,MIC,[24],4 µg/mL
same,MIC,[9],8 µg/mL
same,MIC,[10]; Corynebacterium Group A (49676),1 µg/mL
same,MIC,[12],8 µg/mL
same,MIC,[13],2 µg/mL
same,MIC,[14],2 µg/mL
same,MIC,[16],0.5 µg/mL
same,MIC,[17],8 µg/mL
same,MIC,[18],16 µg/mL
Cn1cc(NC(=O)c2cc(NC(=O)c3cc(NC(=O)c4nsc(Cl)c4Cl)cn3C)cn2C)cc1C(=O)NCCC(=N)N [V-ee],MIC,[1]; Staphylococcus aureus (29213),"0.25, μg/mL and 0.125 μg/mL"
same,MIC,[4]; Bacillus cereus (11778),0.25 µg/mL
same,MIC,[25],2 µg/mL
same,MIC,[7],"64, μg/mL and 32 μg/mL"
Cn1cc(NC(=O)c2cc(NC(=O)c3cc(NC(=O)c4nsc(NCCCNC5CCCCC5)c4Cl)cn3C)cn2C)cc1C(=O)NCCCNC1CCCCC1 [V-ff],MIC,[1]; Staphylococcus aureus (29213),1 µg/mL
same,MIC,[4]; Bacillus cereus (11778),2 µg/mL
same,MIC,[25],16 µg/mL
same,MIC,[7],32 µg/mL
Cn1cc(NC(=O)c2cc(NC(=O)c3cc(NC(=O)c4nsc(NCCN5CCOCC5)c4Cl)cn3C)cn2C)cc1C(=O)NCCN1CCOCC1 [V-gg],MIC,[1]; Staphylococcus aureus (29213),"2, μg/mL and 1 μg/mL"
same,MIC,[25],32 µg/mL
same,MIC,[7],32 µg/mL
Cn1cc(NC(=O)c2cc(NC(=O)c3cc(NC(=O)c4nsc(N5CCCCC5)c4Cl)cn3C)cn2C)cc1C(=O)NCCN1CCOCC1 [V-hh],MIC,[1]; Staphylococcus aureus (29213),1 µg/mL
same,MIC,[4]; Bacillus cereus (11778),1 µg/mL
same,MIC,[25],32 µg/mL
same,MIC,[7],32 µg/mL
COc1snc(C(=O)Nc2cc(C(=O)Nc3cc(C(=O)Nc4cc(C(=O)NCCC(=N)N)n(C)c4)n(C)c3)n(C)c2)c1Cl [V-jj],MIC,[1]; Staphylococcus aureus (29213),0.5 µg/mL
same,MIC,[4]; Bacillus cereus (11778),0.25 µg/mL
same,MIC,[25],1 µg/mL
same,MIC,[7],32 µg/mL
Cn1cc(NC(=O)c2cc(NC(=O)c3cc(NC(=O)c4nsc(Cl)c4Cl)cn3C)cn2C)cc1C(=O)NCCN1CCOCC1 [V-mm],MIC,[1]; Staphylococcus aureus (29213),0.5 µg/mL
same,MIC,[4]; Bacillus cereus (11778),0.25 µg/mL
same,MIC,[25],32 µg/mL
same,MIC,[7],32 µg/mL
CN=C(CCNC(=O)c1cc(NC(=O)c2cc(NC(=O)c3cc(NC(=O)c4nsc(Cl)c4Cl)cn3C)cn2C)cn1C)NC [V-nn],MIC,[1]; Staphylococcus aureus (29213),0.031 µg/mL
same,MIC,[4]; Bacillus cereus (11778),0.064 µg/mL
same,MIC,[25],1 µg/mL
same,MIC,[7],32 µg/mL
COc1snc(C(=O)Nc2cc(C(=O)Nc3cc(C(=O)Nc4cc(C(=O)NCCNC(=N)N)n(C)c4)n(C)c3)n(C)c2)c1Cl [V-oo],MIC,[1]; Staphylococcus aureus (29213),0.25 µg/mL
same,MIC,[4]; Bacillus cereus (11778),0.5 µg/mL
same,MIC,[25],1 µg/mL
same,MIC,[7],32 µg/mL
